system: recombinant guanylate cyclase reporter cell line; assay: Effect on a recombinant guanylate cyclase reporter cell line; type: cell-based; conditions: in some cases mean values for individual determinations
Procedure: B-2. Effect on a Recombinant Guanvlate Cyclase Reporter Cell Line
The cellular activity of the compounds according to the invention is determined using a recombinant guanylate cyclase reporter cell line, as described in F. Wunder et al., Anal. Biochem. 339, 104-112 (2005).
Representative MEC values (MEC=minimum effective concentration) for the compounds of the invention are shown in the table below (in some cases as mean values for individual determinations): […]

Compound | MEC (minimum effective concentration)
Cc1nc2c(OCc3c(F)cccc3F)cc(Cl)cn2c1C(=O)NCC(C)(N)CCF (racemic) [Example 7, rac-N-(2-Amino-4-fluoro-2-methylbutyl)-6-chloro-8-[(2,6-difluorobenzyl)oxy]-2-methylimidazo[1,2-a]pyridine-3-carboxamide (racemate)] | 0.1 µM
Cc1nc2c(OCc3c(F)cccc3F)cc(Cl)cn2c1C(=O)NCC(C)(N)CCCF (single isomer, unassigned; enantiomer a) [Example 3, ent-N-(2-Amino-5-fluoro-2-methylpentyl)-6-chloro-8-[(2,6-difluorobenzyl)oxy]-2-methylimidazo[1,2-a]pyridine-3-carboxamide (enantiomer A)] | 0.1 µM
Cc1nc2c(OCc3c(F)cccc3F)cc(Cl)cn2c1C(=O)NCC(C)(N)CC(F)F (single isomer, unassigned; enantiomer a) [Example 5, ent-N-(2-Amino-4,4-difluoro-2-methylbutyl)-6-chloro-8-[(2,6-difluorobenzyl)oxy]-2-methylimidazo[1,2-a]pyridine-3-carboxamide (enantiomer A)] | 0.3 µM
Cc1nc2c(OCc3c(F)cccc3F)cc(Cl)cn2c1C(=O)NCC(C)(N)CCF (single isomer, unassigned; enantiomer a) [Example 8, ent-N-(2-Amino-4-fluoro-2-methylbutyl)-6-chloro-8-[(2,6-difluorobenzyl)oxy]-2-methylimidazo[1,2-a]pyridine-3-carboxamide (enantiomer A)] | 0.1 µM
Cc1nc2c(OCc3c(F)cccc3F)cc(Cl)cn2c1C(=O)NCC(C)(N)CF (single isomer, unassigned; enantiomer b) [Example 1, ent-N-(2-Amino-3-fluoro-2-methylpropyl)-6-chloro-8-[(2,6-difluorobenzyl)oxy]-2-methylimidazo[1,2-a]pyridine-3-carboxamide (enantiomer B)] | 0.3 µM
Cc1nc2c(OCc3c(F)cccc3F)cc(Cl)cn2c1C(=O)NCC(C)(N)CCC(F)(F)F (single isomer, unassigned; enantiomer b) [Example 2, ent-N-(2-Amino-5,5,5-trifluoro-2-methylpentyl)-6-chloro-8-[(2,6-difluorobenzyl)oxy]-2-methylimidazo[1,2-a]pyridine-3-carboxamide (enantiomer B)] | 0.3 µM
Cc1nc2c(OCc3c(F)cccc3F)cc(Cl)cn2c1C(=O)NCC(C)(N)CCCF (single isomer, unassigned; enantiomer b) [Example 4, ent-N-(2-Amino-5-fluoro-2-methylpentyl)-6-chloro-8-[(2,6-difluorobenzyl)oxy]-2-methylimidazo[1,2-a]pyridine-3-carboxamide (enantiomer B)] | 0.1 µM
Cc1nc2c(OCc3c(F)cccc3F)cc(Cl)cn2c1C(=O)NCC(C)(N)CC(F)F (single isomer, unassigned; enantiomer b) [Example 6, ent-N-(2-Amino-4,4-difluoro-2-methylbutyl)-6-chloro-8-[(2,6-difluorobenzyl)oxy]-2-methylimidazo[1,2-a]pyridine-3-carboxamide (enantiomer B)] | 0.3 µM
Cc1nc2c(OCc3c(F)cccc3F)cc(Cl)cn2c1C(=O)NCC(C)(N)CCF (single isomer, unassigned; enantiomer b) [Example 9, ent-N-(2-Amino-4-fluoro-2-methylbutyl)-6-chloro-8-[(2,6-difluorobenzyl)oxy]-2-methylimidazo[1,2-a]pyridine-3-carboxamide (enantiomer B)] | 0.1 µM

Reference: US20170101407A1, “6-CHLORINE-SUBSTITUTED IMIDAZO[1,2-A]PYRIDINE CARBOXAMIDES AND THE USE THEREOF AS SOLUBLE GUANYLATE CYCLASE STIMULATORS” (Bayer Pharma Aktiengesellschaft, priority 2014, published 2017)
